Patent US8359784B2, “Method for controlling subterranean termite activity by forming a barrier” (FMC Corporation, priority 2009, dated 2013)

System: Formosean subterranean termites (Coptotermes formosanus)
Experiment: Subterranean termite activity on treated wooden frame structures (sheds), field test
Type: in vivo
Source text: Twelve wooden frame structures (4 ft by 3 ft by 4 ft high, four to receive treatment with a bifenthrin solution, four to receive a commercial borate standard treatment and four to be used as untreated controls) were built on one inch thick concrete pads in an area of high subterranean termite pressure, Formosean subterranean termites (Coptotermes formosanus). The structures were constructed using pressure treated sill plates, untreated southern yellow pine studs and untreated plywood walls. A two inch diameter polyethylene pipe was installed in a hole in the center of each concrete pad to simulate a plumbing drain installation, leaving a small gap between the pad and the pipe. A piece of wood was inserted in the gap to encourage local termite pressure. […] Termite activity surrounding each structure was monitored by installing commercially available in-ground termite monitors (FIRSTLINE® Defender kits available from FMC Corporation) about one foot from each outside face, a total of four monitors per structure. […] Termite activity was measured in each structure by visually inspecting the inside and outside walls and the area around the polyethylene pipe for termite damage and for construction of shelter tubes at for up to 18 months after treatment. […]

Cc1c(COC(=O)[C@@H]2[C@H](/C=C(\Cl)C(F)(F)F)C2(C)C)cccc1-c1ccccc1 (racemic) [Bifenthrin, 2-methylbiphenyl-3-ylmethyl (Z)-(1RS)-cis-3-(2-chloro-3,3,3-trifluoroprop-1-enyl)-2,2-dimethyl cyclopropanecarboxylate]
Termite damage or damage to the wood piece inserted in the simulated plumbing drain hole (up to 18 months after treatment): None of the bifenthrin treated structures had any indication of termite damage or damage to the wood piece
Damage to structures due to termite activity (visual inspection up to 18 months after treatment): very little or no damage due to termite activity
